Laboratory results: PMC5378611 (Drug testing and analysis, 2017)
Read-outs that look alike come from different tables or passages of the source.

How the values were obtained:
[1] = molecular target: serotonin transporters (SERT) (Rattus norvegicus, UniProt P31652); experiment: [3H]serotonin uptake inhibition via SERT in rat brain synaptosomes; type: cell-based
[2] = cited from earlier work
DAT = conditions: read-out: binding affinity toward DAT IC50; [3H]WIN-35,428; cited from earlier work
[3] = molecular target: norepinephrine transporters (NET) (Rattus norvegicus, UniProt Q63380); experiment: [3H]norepinephrine uptake inhibition via NET in rat brain synaptosomes; type: cell-based; conditions: times less potent, from IC50 values
[4] = molecular target: dopamine transporters (DAT) (Rattus norvegicus, UniProt P23977); experiment: [3H]dopamine uptake inhibition via DAT in rat brain synaptosomes; type: cell-based
[5] = read-out: [3H]5-HT uptake via SERT IC50, rat brain synaptosomes, 5 nM [3H]serotonin, mean ± SD, n = 3

serotonin transporters (SERT), sequence (P31652 whole entry): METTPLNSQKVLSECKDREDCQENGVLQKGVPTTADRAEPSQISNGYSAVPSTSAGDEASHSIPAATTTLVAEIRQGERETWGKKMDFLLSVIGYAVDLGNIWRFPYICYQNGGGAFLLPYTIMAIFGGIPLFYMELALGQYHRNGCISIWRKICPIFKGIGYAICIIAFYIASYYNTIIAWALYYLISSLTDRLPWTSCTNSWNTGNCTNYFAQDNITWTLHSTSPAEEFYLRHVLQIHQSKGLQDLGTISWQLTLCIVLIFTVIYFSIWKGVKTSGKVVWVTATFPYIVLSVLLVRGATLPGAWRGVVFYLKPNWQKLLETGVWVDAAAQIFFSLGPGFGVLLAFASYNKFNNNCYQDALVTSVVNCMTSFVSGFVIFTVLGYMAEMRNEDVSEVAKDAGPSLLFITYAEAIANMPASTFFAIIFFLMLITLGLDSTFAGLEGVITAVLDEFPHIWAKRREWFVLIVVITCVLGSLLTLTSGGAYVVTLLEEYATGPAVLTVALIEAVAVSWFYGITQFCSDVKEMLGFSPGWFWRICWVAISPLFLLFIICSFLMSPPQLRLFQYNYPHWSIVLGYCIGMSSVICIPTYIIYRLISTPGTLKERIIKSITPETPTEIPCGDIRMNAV
norepinephrine transporters (NET), sequence (Q63380 1-617): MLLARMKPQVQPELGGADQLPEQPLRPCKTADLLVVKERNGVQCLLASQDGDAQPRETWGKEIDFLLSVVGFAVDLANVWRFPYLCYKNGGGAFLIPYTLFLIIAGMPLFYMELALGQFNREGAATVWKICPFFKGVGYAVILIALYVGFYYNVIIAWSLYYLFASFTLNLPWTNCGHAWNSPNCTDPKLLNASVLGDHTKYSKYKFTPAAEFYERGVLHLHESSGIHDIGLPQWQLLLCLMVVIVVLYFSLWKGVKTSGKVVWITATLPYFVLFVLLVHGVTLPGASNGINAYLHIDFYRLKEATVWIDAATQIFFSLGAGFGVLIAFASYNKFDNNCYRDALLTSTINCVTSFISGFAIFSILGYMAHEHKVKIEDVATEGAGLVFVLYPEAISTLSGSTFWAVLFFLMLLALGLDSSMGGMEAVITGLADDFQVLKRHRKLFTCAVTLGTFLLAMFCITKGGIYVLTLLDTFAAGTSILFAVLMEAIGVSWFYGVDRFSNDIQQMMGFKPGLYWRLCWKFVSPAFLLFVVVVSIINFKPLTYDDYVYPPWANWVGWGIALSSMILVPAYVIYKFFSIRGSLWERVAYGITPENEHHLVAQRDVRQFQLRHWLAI
dopamine transporters (DAT), sequence (P23977 whole entry): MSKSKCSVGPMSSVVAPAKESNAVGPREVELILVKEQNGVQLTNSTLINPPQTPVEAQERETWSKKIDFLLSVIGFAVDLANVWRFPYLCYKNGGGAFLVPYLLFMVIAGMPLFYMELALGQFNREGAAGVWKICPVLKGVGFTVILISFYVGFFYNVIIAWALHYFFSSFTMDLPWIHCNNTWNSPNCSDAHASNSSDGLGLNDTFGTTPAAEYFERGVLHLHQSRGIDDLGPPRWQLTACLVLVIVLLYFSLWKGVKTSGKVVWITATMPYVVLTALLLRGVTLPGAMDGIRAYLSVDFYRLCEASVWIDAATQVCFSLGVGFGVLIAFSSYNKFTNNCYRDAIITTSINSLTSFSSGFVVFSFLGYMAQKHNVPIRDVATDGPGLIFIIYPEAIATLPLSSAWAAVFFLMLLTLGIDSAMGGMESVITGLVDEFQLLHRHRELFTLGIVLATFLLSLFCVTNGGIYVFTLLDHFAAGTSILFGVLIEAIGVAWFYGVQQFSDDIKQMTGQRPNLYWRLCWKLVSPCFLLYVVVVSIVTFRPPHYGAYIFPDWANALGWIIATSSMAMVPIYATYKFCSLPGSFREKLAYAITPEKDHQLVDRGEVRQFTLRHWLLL

Structure (SMILES) | IC50 [1, 5] [µM] | potency relative to MPH in drug discrimination [2] | IC50 (DAT) [µM] | potency relative to (±)-threo-4F-MPH at the norepinephrine transporter [3] | IC50 [1] [µM] | IC50 [4] [µM]
COC(=O)[C@H](c1ccc(F)cc1)[C@H]1CCCCN1 (racemic) [(±)-erythro-4F-MPH, 4-Fluoromethylphenidate] | > 10 | – | – | – | – | –
COC(=O)[C@H](c1ccc(F)cc1)[C@H]1CCCCN1 (racemic) [(±)-threo-4F-MPH, 4-Fluoromethylphenidate] | 8.8 | about three times more potent than MPH | 0.035 | – | – | –
COC(=O)C(c1ccccc1)C1CCCCN1 (stereo not shown) [MPH, methyl-2-phenyl-2-(piperidin-2-yl)acetate] | – | – | – | around 2.5 | > 10 | 0.131 ± 0.0142
